Test results as given in patent US20160159861A1, “APJ Receptor Compounds” (priority 2013, published 2016).
Where two headings read alike, the source gives them in different places. Peptide text beside a SMILES is read from it.

Assays:
[1] = biological target: T1, human APJ receptor (hAPJ) (Homo sapiens, UniProt P35414); assay: HTRF cAMP assay: inhibition of NKH477-stimulated cAMP in HEK cells stably expressing hAPJ; format: cell-based; details: for Emax: HEK293, read-out: % IA, bound stated; for % IA (cAMP inhibition, hAPJ HEK): intrinsic activity; for Ranking: composite class of EC50 (hAPJ), % IA and % histamine or formal (+) charge; for inhibition of NKH477-stimulated increase in cAMP, dose dependent: concentration response curves, FIGS. 1 and 2, HEK cells stably expressing APJ
T1 construct: expressed in transfected cells
T1 sequence (P35414 1-380): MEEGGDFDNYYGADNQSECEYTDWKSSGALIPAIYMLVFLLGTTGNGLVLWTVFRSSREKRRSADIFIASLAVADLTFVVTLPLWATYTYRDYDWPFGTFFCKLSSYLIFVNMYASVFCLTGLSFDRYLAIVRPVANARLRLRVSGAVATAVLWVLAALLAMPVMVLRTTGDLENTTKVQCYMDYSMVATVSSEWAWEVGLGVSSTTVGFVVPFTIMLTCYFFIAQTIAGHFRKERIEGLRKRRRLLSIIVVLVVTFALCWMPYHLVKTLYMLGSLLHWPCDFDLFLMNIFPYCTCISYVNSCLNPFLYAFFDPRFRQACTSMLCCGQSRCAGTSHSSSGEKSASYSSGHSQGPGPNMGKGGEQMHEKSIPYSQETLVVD
Excerpt: HTRF cAMP Assay and IP-One Assay (Cisbio)
HTRF (homogeneous time resolved fluorescence) is a technology developed by Cisbio Bioassays based on TR-FRET (time-resolved fluorescence resonance energy transfer). Cisbio Bioassays has developed a wide selection of HTRF-based assays compatible with whole cells, thereby enabling functional assays to run under more physiological conditions. The IP-One assays are competitive immunoassays using cryptate-labeled anti-IP1 monoclonal antibody and d2-labeled IP1. IP1 is a relatively stable downstream metabolite of IP3, and accumulates in cells following Gq receptor activation.
cAMP kits based on a competitive immunoassay using cryptate-labeled anti-cAMP antibody and d2-labeled cAMP were used to assay the effects of APJ compounds of the present invention. […] Cells are treated with 1 nG/mL doxycycline and seeded in all white 96 well plates @40 k/well overnight.

[2] = system: rat peritoneal cells; assay: Ex vivo histamine release assay in rat peritoneal cells (vs. Compound 48/80); format: cell-based
Excerpt: More desirable pharmacological tolerability can include a decrease in an undesirable side effect (e.g., histamine release, an indicator of mast cell degranulation) without a significant loss in activity of the compound.
Screening of the variant G protein receptor compounds against a control compound for histamine release can be done following standard assays. The standard assay can include comparison to a control compound known to elicit a histamine response (e.g., 48/80 having CAS No. 94724-12-6). Such an assay using rat peritoneal cells is described herein for the APJ compounds.
Test compounds were assayed in the ex vivo histamine release assay using a 3-point dose response. Concentrations of total histamine contained in the cells is used to correct for variability in the numbers of mast cells in the lavage per well.
Resident peritoneal cells were harvested from naïve Sprague Dawley rats (male 200-300 gr, Charles River). Rats were euthanized by CO2 asphyxiation and a skin incision was made along the middle-line of the abdomen. Thirty milliliters of HBSS (HyClone, cat#SH 30268.01) containing 20 mM HEPES and 0.2% BSA (heretofore Assay Buffer) were injected intraperitoneally using a 30 mL syringe with the attached 18 gauge needle. The abdomen was gently lavaged for 1-2 min and 7-10 milliliters of the peritoneal lavage were carefully aspirated. Cell count in the peritoneal lavage was determined using Cellometer Auto T4 (Nexcelom Bioscience). The peritoneal cell count was adjusted to […] cells/mL in Assay Buffer. Rat peritoneal cells were kept at room temperature before and during the assay.
For the 10-point assay, 3-fold serial dilutions were prepared for each test compound in 100% DMSO in 96-well plates (Greiner Bio One, Ref#651261)—from 100 μM down to […]. For the 3-point assay, 10-fold serial dilutions were prepared in 100% DMSO at 100 μM, 10 μM and 1 μM concentrations. From this plate, 5 μL of compound were transferred to a new plate containing 45 μL Assay Buffer to generate a compound plate with 10× final concentrations in 10% DMSO with Assay Buffer. In the final plates, column 11 contained 1% DMSO for the low-histamine-releasing control.
Suspensions of the rat peritoneal cells (90 μL of 2.75×10^5 cells/mL; →25,000 cells per well) were introduced into each well of a new 96-well microtiter plate (Greiner Bio One, Ref#651261) and 10 μL aliquots of the serially diluted compounds were transferred to the cells in each well. The microtiter plate was incubated for 30 min at room temperature. Following incubation cells were spun down (500 rpm, 7 min) and supernatants were collected for further analysis. Supernatants were diluted 6 times with the assay buffer (15 μL to 75 μL, for 90 μL total) and released histamine content was determined using HTRF® Histamine assay kit (CisBio, cat#62HTMPEB). To measure the total histamine in each well, cells were lysed by addition of 15 μL 5% TritonX-100 to each well followed by incubation for 15 minutes. The plates were then spun at 3000 rpm for 5 minutes, and 10 μL of supernatant were diluted 9-fold in assay buffer (10 μL to 80 μL for 90 μL total) to make the “total” histamine plate. Histamine content was measured as described above for the “released” histamine values.
The standard positive control was Compound 48/80 (Enzo Life Sciences), a oligomeric polymer mixture produced by the condensation of N-methyl-p-methoxyphenethylamine with formaldehyde. The trimer is the most abundant in the mixture Compound 48/80 is used to promote mast cell degranulation and activates G proteins by a mechanism analogous to that of mastoparan. […] See references: T. Higashijima et al., J. Biol., Chem., 265 14176 (1990); M. Mousli et al., FEBS Lett., 259 260 (1990); K. Gietzen et al., Biochim. Biophys. Acta, 736 109 (1983); K. Gietzen, Biochem. J., 1983 216 611 and C. Bronner et al., Biochim. Biophys. Acta, 920 301(1987).

[3] = EC50 (cAMP inhibition, hAPJ HEK), Table 6, hAPJ HEK cells, NKH477-stimulated cAMP
[4] = HTRF cAMP Assay, per data of Table 6
[5] = histamine release from rat peritoneal cells relative to Compound 48/80
[6] = Table 6, hAPJ HEK cells, NKH477-stimulated cAMP, read-out: EC50 (cAMP inhibition, hAPJ HEK)
[7] = HTRF cAMP Assay, per data of Table 6, read-out: EC50 (hAPJ), inhibition of cAMP production, bound stated

Structure (SMILES)	Emax [1, 4]	Histamine (% vs. 48/80) [2]	EC50 [1, 6]	EC50 [1, 7]	EC50 [1, 3]	EC50 ([1]; EC50 (hAPJ), inhibition of cAMP production, bound stated, HTRF cAMP Assay, per data of Table 6)	% IA (cAMP inhibition, hAPJ HEK) ([1]; Table 6, hAPJ HEK cells)	Ranking [1]	inhibition of NKH477-stimulated increase in cAMP, dose dependent [1]	Histamine (% vs. 48/80) [2, 5]
CCCCCCCCCCCCCCCC(=O)N[C@H](C(=O)N[C@H](C(=O)N[C@@H](Cc1ccccc1)C(=O)N[C@@H](CCCNC(=N)N)C(=O)N[C@@H](CO)C(=O)N[C@@H](CO)C(=O)N[C@@H](CCC(=O)O)C(=O)N[C@H](CCCN)C(=O)N[C@@H](CCCNC(=N)N)C(=O)N[C@@H](CCCNC(=N)N)C(=O)N[C@@H](CO)C(=O)N[C@@H](C)C(=O)N[C@@H](CC(=O)O)C(=O)N[C@H](C(=O)N[C@@H](Cc1ccccc1)C(=O)N[C@H](C(N)=O)[C@@H](C)CC)[C@@H](C)CC)C(C)C)[C@@H](C)O [Compound 8] (HELM PEPTIDE1{[CCCCCCCCCCCCCCCC(=O)[*:2]].T.V.F.R.S.S.E.[NCCC[C@@H](N[*:1])C(=O)[*:2]].R.R.S.A.D.I.F.I.[am]}$$$$V2.0)	≥ 80%				0.014 µM	≤ 0.025 µM	99%	***** (EC50≦25 nM (hAPJ), % IA≧80% and either % histamine≦35% or formal (+) charge≦1)	inhibited	9%
CCCCCCCCCCCCCCCC(=O)N[C@H](C(=O)N[C@H](C(=O)N[C@@H](Cc1ccccc1)C(=O)N[C@@H](CCCNC(=N)N)C(=O)N[C@@H](CO)C(=O)N[C@@H](CO)C(=O)N[C@@H](CCC(=O)O)C(=O)N[C@H](C)C(=O)N[C@@H](CCCNC(=N)N)C(=O)N[C@@H](CCCNC(=N)N)C(=O)N[C@@H](CO)C(=O)N[C@@H](C)C(=O)N[C@@H](CC(=O)O)C(=O)N[C@H](C(=O)N[C@@H](Cc1ccccc1)C(=O)N[C@H](C(N)=O)[C@@H](C)CC)[C@@H](C)CC)C(C)C)[C@@H](C)O [Compound 10] (HELM PEPTIDE1{[CCCCCCCCCCCCCCCC(=O)[*:2]].T.V.F.R.S.S.E.[dA].R.R.S.A.D.I.F.I.[am]}$$$$V2.0)					0.039 µM		106%	** (EC50 25-50 nM (hAPJ), % IA 50-79% and either % histamine>35% or formal (+) charge>1)		3%
CCCCCCCCCCCCCCCC(=O)N[C@H](C(=O)N[C@H](C(=O)N[C@@H](Cc1ccccc1)C(=O)N[C@@H](CCCNC(=N)N)C(=O)N[C@@H](CO)C(=O)N[C@@H](CO)C(=O)N[C@@H](CCC(=O)O)C(=O)N[C@H](CCCCN)C(=O)N[C@@H](CCCNC(=N)N)C(=O)N[C@@H](CCCNC(=N)N)C(=O)N[C@@H](CO)C(=O)N[C@@H](C)C(=O)N[C@@H](CC(=O)O)C(=O)N[C@@H](Cc1ccc(-c2ccccc2)cc1)C(=O)N[C@@H](Cc1ccccc1)C(=O)N[C@H](C(N)=O)[C@@H](C)CC)C(C)C)[C@@H](C)O [Compound 11, TVFRSSEkRRSAD(Bip)FI] (HELM PEPTIDE1{[CCCCCCCCCCCCCCCC(=O)[*:2]].T.V.F.R.S.S.E.[dK].R.R.S.A.D.[O=C([C@H](Cc1ccc(-c2ccccc2)cc1)N[*:1])[*:2]].F.I.[am]}$$$$V2.0)		8%	0.034 µM				76%	** (EC50 25-50 nM (hAPJ), % IA 50-79% and either % histamine>35% or formal (+) charge>1)		

Now from value to compound, other results behind:

Emax [1, 4]	Histamine (% vs. 48/80) [2]	EC50 [1, 6]	EC50 [1, 7]	Structure (SMILES)	EC50 [1, 3]	EC50 ([1]; EC50 (hAPJ), inhibition of cAMP production, bound stated, HTRF cAMP Assay, per data of Table 6)	% IA (cAMP inhibition, hAPJ HEK) ([1]; Table 6, hAPJ HEK cells)	Ranking [1]	inhibition of NKH477-stimulated increase in cAMP, dose dependent [1]	Histamine (% vs. 48/80) [2, 5]
	65%			CCCCCCCCCCCCCCCC(=O)N1CCC[C@H]1C(=O)N[C@@H](CCCCNC(=O)[C@@H]1CCCN1C(=O)[C@H](Cc1ccccc1)NC(=O)[C@@H](NC(=O)[C@H](CC(=O)O)NC(=O)[C@H](C)NC(=O)[C@H](CO)NC(=O)[C@H](CCCNC(=N)N)NC(=O)[C@H](CCCNC(=N)N)NC(=O)[C@@H](CCCCN)NC(=O)[C@@H]1CCCN1C(C)=O)[C@@H](C)CC)C(=O)N[C@@H](CCCNC(=N)N)C(=O)N[C@@H](CCCNC(=N)N)C(=O)N[C@@H](CO)C(=O)N[C@@H](C)C(=O)N[C@@H](CC(=O)O)C(=O)N[C@H](C(=O)N[C@@H](Cc1ccccc1)C(=O)N1CCC[C@H]1C(N)=O)[C@@H](C)CC [Compound 9] (HELM PEPTIDE1{[CCCCCCCCCCCCCCCC(=O)[*:2]].P.K.R.R.S.A.D.I.F.P.[am]}|PEPTIDE2{[ac].P.[dK].R.R.S.A.D.I.F.P}$PEPTIDE1,PEPTIDE2,3:R3-11:R2$$$V2.0)			84%	** (EC50 25-50 nM (hAPJ), % IA 50-79% and either % histamine>35% or formal (+) charge>1)		
≥ 80%	30%	0.012 µM	≤ 0.025 µM	CCCCCCCCCCCCCCCC(=O)N[C@H](C(=O)N[C@H](C(=O)N[C@@H](Cc1ccccc1)C(=O)N[C@@H](CCC(N)=O)C(=O)N[C@@H](CO)C(=O)N[C@@H](CO)C(=O)N[C@@H](CCC(=O)O)C(=O)N[C@H](CCCCN)C(=O)N[C@@H](CCCNC(=N)N)C(=O)N[C@@H](CCCNC(=N)N)C(=O)N[C@@H](CO)C(=O)N[C@@H](C)C(=O)N[C@@H](CC(=O)O)C(=O)N[C@@H](Cc1ccccc1)C(=O)N[C@H](C(N)=O)[C@@H](C)CC)C(C)C)[C@@H](C)O [Compound 15, Pal-TVFQSSEkRRSADFI-amide] (HELM PEPTIDE1{[CCCCCCCCCCCCCCCC(=O)[*:2]].T.V.F.Q.S.S.E.[dK].R.R.S.A.D.F.I.[am]}$$$$V2.0)			108%	***** (EC50≦25 nM (hAPJ), % IA≧80% and either % histamine≦35% or formal (+) charge≦1)	inhibited	
50 to 79%	21%	0.01 µM	0.025 to 0.05 µM	CCCCCCCCCCCCCCCC(=O)N[C@H](C(=O)N[C@H](C(=O)N[C@@H](Cc1ccccc1)C(=O)N[C@@H](CCC(N)=O)C(=O)N[C@@H](CO)C(=O)N[C@@H](CCC(=O)O)C(=O)N[C@H](CCCCN)C(=O)N[C@@H](CCCNC(=N)N)C(=O)N[C@@H](CCCNC(=N)N)C(=O)N[C@@H](CO)C(=O)N[C@@H](C)C(=O)N[C@@H](CC(=O)O)C(=O)N[C@@H](Cc1ccccc1)C(=O)N[C@H](C(N)=O)[C@@H](C)CC)C(C)C)[C@@H](C)O [Compound 16, TVFQSEkRRSADFI] (HELM PEPTIDE1{[CCCCCCCCCCCCCCCC(=O)[*:2]].T.V.F.Q.S.E.[dK].R.R.S.A.D.F.I.[am]}$$$$V2.0)			78%	*** (EC50 25-50 nM (hAPJ), % IA 50-79% and either % histamine≦35% or formal (+) charge≦1)		
